{"source": "paper PMC6152231", "about": "“Anti-Inflammatory Triterpene Glycosides from the Roots of Ilex dunniana Levl” (Molecules : A Journal of Synthetic Chemistry and Natural …, 2017)", "key": {"[1]": {"system": "BV2 microglial cells", "assay": "cytotoxicity, MTT assay", "type": "cell-based, mouse", "details": "for Cell Viability: 24 h, BV2 microglial cells, n = 3, in % (unit assumed)", "protocol": "Cell viabilities were measured using the MTT assay. Briefly, BV2 microglial cells were seeded in 96-well plates at concentrations of 1 × 10^5 cells per well. After incubation for 2 h, the cells were incubated with compounds for 24 h and then washed with PBS three times. Following the washing step, 200 μL of RPMI 1640 medium containing 0.5 mg/mL MTT were added to each well, the cells were then incubated at 37 °C for another 4 h. Finally, the culture medium was removed, and the formazan crystal was dissolved by adding 150 μL of DMSO. Absorbances at 570 nm were measured using a microplate reader."}, "[2]": {"system": "LPS-induced NO production in mouse BV2 microglial cells", "assay": "inhibition of LPS-induced NO production (Griess)", "type": "cell-based", "details": "BV-2, LPS 1 μg/mL, 24 h, n = 3, read-out: IC50 against LPS-induced NO production", "protocol": "BV2 microglial cells were maintained in RPMI1640 medium at 37 °C in 5% CO2. The cells were placed in 48-well plates and preincubated for 24 h, treated with tested triterpene glycosides dissolved in DMSO at various final concentrations (5.0, 10.0, 20.0, 40.0, 80.0 μM) in triplicate for 1 h, and continuously incubated with LPS (1 μg/mL) for 24 h. Dexamethasone (10^−6 M) was used as the positive control. From each well, the supernatants (100 μL) were mixed with an equal amount of Griess reagent at room temperature for 20 min. The concentration of NO2^− was measured for the amount of NO by a microplate reader at 570 nm, using sodium nitrite as the standard to calculate the concentration of the nitrite."}, "[3]": {"system": "ear edema induced by croton oil in mice", "assay": "croton oil-induced ear edema in mice", "type": "in vivo", "details": "ICR male mice, dose 1.0 mg/kg, positive control", "procedure": "On the basis of the inhibition of croton oil-induced ear edema in mice, the topical anti-inflammatory activity of the test compounds was evaluated. Animal experiments were performed in accordance to the Institutional Guidelines for Animal Care and Use of the Chinese Academy of Medical Sciences and Peking Union Medical College. The protocol was approved by the Committee on the Ethics of Animal Experiments of the Chinese Academy of Medical Sciences and Peking Union Medical College (permit pumber: 002973).The croton oil (Croton tiglium L., seed oil) was purchased from Sigma-Aldrich (St. Louis, MO, USA). In ICR male mice (18–20 g, n = 10 per group), croton oil (0.4 mg) was mixed with acetone (1 mL) to be applied to the left ear (10 μL each side) topically to induce ear edema. The animals were administered with candidate extracts (50 mg/kg) for 1 h, followed by treatment with croton oil for 4 h. […] Based on the weight difference between two plugs (8 mm diameter) of the treated (left) and untreated (right) ears, the edematous response was measured. The percentage reduction in edema in treated mice compared with control mice is calculated for the expression of anti-inflammatory activity."}}}
{"smiles": "CCCCOC(=O)C1OC(OC2CCC3(C)C(CCC4(C)C3CC=C3C5C(C(=O)OC6OC(CO)C(O)C(O)C6O)(CCC(C)C5(C)O)CCC34C)C2(C)C)C(O)C(OS(=O)(=O)O)C1O", "note": "[Compound 2, 3β-(3-O-sulphonyl-6-O-n-butyl-D-glucuronopyranosyl)-19α-hydroxy-urs-12-en-28-oic acid 28-O-β-D-glucopyranoside]", "values": [{"measurement": "Cell Viability", "setting": "[1]; 5.0 μM", "result": "98.32 ± 2.05"}, {"measurement": "Cell Viability", "setting": "[1]; 10.0 μM", "result": "98.25 ± 1.87"}, {"measurement": "Cell Viability", "setting": "[1]; 20.0 μM", "result": "98.16 ± 1.25"}, {"measurement": "Cell Viability", "setting": "[1]; 40.0 μM", "result": "98.56 ± 1.37"}, {"measurement": "Cell Viability", "setting": "[1]; 80.0 μM", "result": "98.26 ± 1.88"}, {"measurement": "IC50", "setting": "[2]", "result": "12.3 ± 1.21", "unit": "µM"}]}
{"smiles": "C[C@H]1CC[C@]2(C(=O)O[C@@H]3O[C@H](CO)[C@@H](O)[C@H](O)[C@H]3O)CC[C@]3(C)C(=CCC4[C@@]5(C)CC[C@H](O[C@@H]6OC[C@@H](O)[C@H](O)[C@H]6OS(=O)(=O)O)C(C)(C)C5CC[C@]43C)C2[C@]1(C)O", "note": "(stereo partly drawn) [Compound 5, ilexpublesnin I]", "values": [{"measurement": "Cell Viability", "setting": "[1]; 5.0 μM", "result": "98.21 ± 1.93"}, {"measurement": "Cell Viability", "setting": "[1]; 10.0 μM", "result": "99.33 ± 1.54"}, {"measurement": "Cell Viability", "setting": "[1]; 20.0 μM", "result": "99.32 ± 1.32"}, {"measurement": "Cell Viability", "setting": "[1]; 40.0 μM", "result": "99.21 ± 1.66"}, {"measurement": "Cell Viability", "setting": "[1]; 80.0 μM", "result": "99.13 ± 1.28"}, {"measurement": "IC50", "setting": "[2]", "result": "50.7 ± 3.25", "unit": "µM"}]}
{"smiles": "C[C@H]1CC[C@]2(C(=O)O[C@@H]3O[C@H](CO)[C@@H](O)[C@H](O)[C@H]3O)CC[C@]3(C)C(=CCC4[C@@]5(C)CC[C@H](O[C@@H]6OC[C@H](O)[C@H](OS(=O)(=O)O)[C@H]6O)C(C)(C)C5CC[C@]43C)C2[C@]1(C)O", "note": "(stereo partly drawn) [Compound 4, ilexpublesnin H]", "values": [{"measurement": "Cell Viability", "setting": "[1]; 5.0 μM", "result": "99.36 ± 1.31"}, {"measurement": "Cell Viability", "setting": "[1]; 10.0 μM", "result": "99.37 ± 1.21"}, {"measurement": "Cell Viability", "setting": "[1]; 20.0 μM", "result": "99.67 ± 1.32"}, {"measurement": "Cell Viability", "setting": "[1]; 40.0 μM", "result": "99.57 ± 1.53"}, {"measurement": "Cell Viability", "setting": "[1]; 80.0 μM", "result": "99.33 ± 1.30"}, {"measurement": "IC50", "setting": "[2]", "result": "33.5 ± 2.11", "unit": "µM"}]}
{"smiles": "C[C@@H]1CC[C@]2(C(=O)O[C@@H]3O[C@H](CO)[C@@H](O)[C@H](O)[C@H]3O)CC[C@]3(C)C(=CCC4[C@@]5(C)CC[C@H](OS(=O)(=O)[O-])[C@](C)(CO)C5CC[C@]43C)[C@@H]2[C@]1(C)O.[Na+]", "note": "(stereo partly drawn) [Compound 6, ilexoside XXXV]", "values": [{"measurement": "Cell Viability", "setting": "[1]; 5.0 μM", "result": "102.21 ± 1.03"}, {"measurement": "Cell Viability", "setting": "[1]; 10.0 μM", "result": "102.28 ± 1.56"}, {"measurement": "Cell Viability", "setting": "[1]; 20.0 μM", "result": "103.35 ± 1.58"}, {"measurement": "Cell Viability", "setting": "[1]; 40.0 μM", "result": "103.26 ± 1.28"}, {"measurement": "Cell Viability", "setting": "[1]; 80.0 μM", "result": "103.22 ± 1.89"}, {"measurement": "IC50", "setting": "[2]", "result": "22.3 ± 2.23", "unit": "µM"}]}
{"smiles": "C[C@@H]1CC[C@]2(C(=O)O[C@@H]3O[C@H](CO)[C@@H](O)[C@H](O)[C@H]3O)CC[C@]3(C)C(=CCC4[C@@]5(C)CC[C@H](O[C@@H]6O[C@H](CO)[C@@H](O)[C@H](O)[C@H]6O[C@@H]6O[C@H](CO)[C@@H](O[C@@H]7O[C@H](CO)[C@@H](O)[C@H](O)[C@H]7O)[C@H](O)[C@H]6O)C(C)(C)C5CC[C@]43C)[C@@H]2[C@]1(C)O", "note": "(stereo partly drawn) [Compound 3, hylonoside II]", "values": [{"measurement": "Cell Viability", "setting": "[1]; 5.0 μM", "result": "91.74 ± 1.11"}, {"measurement": "Cell Viability", "setting": "[1]; 10.0 μM", "result": "90.28 ± 1.82"}, {"measurement": "Cell Viability", "setting": "[1]; 20.0 μM", "result": "89.35 ± 1.35"}, {"measurement": "Cell Viability", "setting": "[1]; 40.0 μM", "result": "88.62 ± 1.21"}, {"measurement": "Cell Viability", "setting": "[1]; 80.0 μM", "result": "88.50 ± 1.32"}, {"measurement": "cytotoxic activity against microglial cell, in words", "setting": "[1]; BV2 microglial cells in vitro", "result": "showed cytotoxic activity"}, {"measurement": "IC50", "setting": "[2]", "result": "9.7 ± 0.86", "unit": "µM"}]}
{"smiles": "C[C@@H]1C[C@H]2[C@@H]3CCC4=CC(=O)C=C[C@]4(C)[C@@]3(F)[C@@H](O)C[C@]2(C)[C@@]1(O)C(=O)CO", "note": "[Dexamethasone, reference compound]", "values": [{"measurement": "Edema Degree", "setting": "[3]", "result": "5.80 ± 0.90", "unit": "mg"}, {"measurement": "Inhibitation Rate", "setting": "[3]; ear edema vs control group", "result": 71.0, "unit": "%"}, {"measurement": "Cell Viability", "setting": "[1]; 5.0 μM", "result": "101.02 ± 1.01"}, {"measurement": "Cell Viability", "setting": "[1]; 10.0 μM", "result": "99.98 ± 1.32"}, {"measurement": "Cell Viability", "setting": "[1]; 20.0 μM", "result": "100.25 ± 1.67"}, {"measurement": "Cell Viability", "setting": "[1]; 40.0 μM", "result": "101.37 ± 1.83"}, {"measurement": "Cell Viability", "setting": "[1]; 80.0 μM", "result": "99.78 ± 1.63"}, {"measurement": "IC50", "setting": "[2]", "result": 0.03, "unit": "µM"}]}
{"smiles": "C=C1CC[C@]2(C(=O)O[C@@H]3O[C@H](CO)[C@@H](O)[C@H](O)[C@H]3O[C@@H]3O[C@@H](C)[C@H](O)[C@@H](O)[C@H]3O)CC[C@]3(C)C(=CC[C@@H]4[C@@]5(C)CC[C@H](O[C@@H]6OC[C@H](O)[C@H](O[C@@H]7O[C@H](CO)[C@@H](O)[C@H](O)[C@H]7O[C@@H]7O[C@H](CO)[C@@H](O)[C@H](O)[C@H]7O)[C@H]6O[C@@H]6O[C@@H](C)[C@H](O)[C@@H](O)[C@H]6O)C(C)(C)[C@@H]5CC[C@]43C)[C@@H]2[C@]1(C)O", "note": "[Compound 7, ilekudinoside F]", "values": [{"measurement": "Cell Viability", "setting": "[1]; 5.0 μM", "result": "101.55 ± 1.42"}, {"measurement": "Cell Viability", "setting": "[1]; 10.0 μM", "result": "101.68 ± 1.36"}, {"measurement": "Cell Viability", "setting": "[1]; 20.0 μM", "result": "101.76 ± 1.47"}, {"measurement": "Cell Viability", "setting": "[1]; 40.0 μM", "result": "101.38 ± 1.58"}, {"measurement": "Cell Viability", "setting": "[1]; 80.0 μM", "result": "101.68 ± 1.38"}, {"measurement": "IC50", "setting": "[2]", "result": "55.2 ± 3.26", "unit": "µM"}]}
{"smiles": "CCCCOC(=O)C1OC(OC2CCC3(C)C(CCC4(C)C3CC=C3C5C(C(=O)OC6OC(CO)C(O)C(O)C6O)(CCC(C)C5(C)O)CCC34C)C2(C)C)C(O)C(O)C1O", "note": "[Compound 1, 3β-(6-O-n-butyl-D-glucuronopyranosyl)-19α-hydroxy-urs-12-en-28-oic acid 28-O-β-D-glucopyranoside]", "values": [{"measurement": "Cell Viability", "setting": "[1]; 5.0 μM", "result": "99.74 ± 1.21"}, {"measurement": "Cell Viability", "setting": "[1]; 10.0 μM", "result": "99.28 ± 1.32"}, {"measurement": "Cell Viability", "setting": "[1]; 20.0 μM", "result": "99.35 ± 1.26"}, {"measurement": "Cell Viability", "setting": "[1]; 40.0 μM", "result": "99.62 ± 1.89"}, {"measurement": "Cell Viability", "setting": "[1]; 80.0 μM", "result": "99.70 ± 1.36"}, {"measurement": "IC50", "setting": "[2]", "result": "11.6 ± 0.89", "unit": "µM"}]}
